Assay results: ChEMBL document CHEMBL1129179, “Antimicrobial evaluation of 3,1-benzoxazin-4-ones, 3,1-benzothiazin-4-ones, 4-alkoxyquinazolin-2-carbonitriles and N-arylimino-1,2,3-dithiazoles” (1996)

Legend:
Type in all cases: functional
Pichia kudriavzevii [1] = assay: Minimum inhibitory concentration required for antifungal activity against Issatchenkia orientalis DSM 6128 strain
[2] = Ratio of MFC99/MIC for antifungal activity against Candida albicans ATCC 10231 strain was determined
[3] = Ratio of MFC99/MIC for antifungal activity against Cryptococcus neoformans DSM 70219 strain was determined
Cryptococcus neoformans [4] = assay: Minimum fungicidal concentration required for antifungal activity against Cryptococcus neoformans DSM 70219 strain
Nakaseomyces glabratus [5] = assay: Minimum inhibitory concentration required for antifungal activity against Candida glabrata DSM 6425 strain
Candida tropicalis [6] = assay: Minimum inhibitory concentration required for antifungal activity against Candida tropicalis DSM 1346 strain
[7] = Ratio of MFC99/MIC for antifungal activity against Candida tropicalis DSM 1346 strain was determined
Pichia kudriavzevii [8] = assay: Minimum fungicidal concentration required for antifungal activity against Issatchenkia orientalis DSM 6128 strain
Candida albicans [9] = assay: Minimum inhibitory concentration required for antifungal activity against Candida albicans ATCC 10231 strain
[10] = Ratio of MFC99/MIC for antifungal activity against Candida glabrata DSM 6425 strain was determined
Candida tropicalis [11] = assay: Minimum fungicidal concentration required for antifungal activity against Candida tropicalis DSM 1346 strain
Nakaseomyces glabratus [12] = assay: Minimum fungicidal concentration required for antifungal activity against Candida glabrata DSM 6425 strain
Cryptococcus neoformans [13] = assay: Minimum inhibitory concentration required for antifungal activity against Cryptococcus neoformans DSM 70219 strain
Candida albicans [14] = assay: Minimum fungicidal concentration required for antifungal activity against Candida albicans ATCC 10231 strain
[15] = Ratio of MFC99/MIC for antifungal activity against Issatchenkia orientalis DSM 6128 strain was determined

COc1cc(/N=c2\ssnc2Cl)cc(OC)c1OC
16 µg/mL: MIC (Pichia kudriavzevii [1]) | MIC (Nakaseomyces glabratus [5]) | MIC (Candida tropicalis [6]) | MIC (Candida albicans [9]) | MFC99 (Nakaseomyces glabratus [12]) | MIC (Cryptococcus neoformans [13]) | MFC99 (Candida albicans [14])
32 µg/mL: MFC99 (Cryptococcus neoformans [4]) | MFC99 (Pichia kudriavzevii [8]) | MFC99 (Candida tropicalis [11])
1: Ratio [2] | Ratio [10]
2: Ratio [3] | Ratio [7] | Ratio [15]

Clc1nss/c1=N\c1ccccc1
1: Ratio [2] | Ratio [3] | Ratio [7] | Ratio [10] | Ratio [15]
8 µg/mL: MFC99 (Cryptococcus neoformans [4]) | MIC (Cryptococcus neoformans [13])
16 µg/mL: MIC (Pichia kudriavzevii [1]) | MIC (Nakaseomyces glabratus [5]) | MIC (Candida tropicalis [6]) | MFC99 (Pichia kudriavzevii [8]) | MIC (Candida albicans [9]) | MFC99 (Candida tropicalis [11]) | MFC99 (Nakaseomyces glabratus [12]) | MFC99 (Candida albicans [14])

OC(Cn1cncn1)(Cn1cncn1)c1ccc(F)cc1F [FLUCONAZOLE]
64 µg/mL: MFC99 (Pichia kudriavzevii [8])
4 µg/mL: MIC (Nakaseomyces glabratus [5]) | MIC (Candida tropicalis [6]) | MIC (Cryptococcus neoformans [13])
2 µg/mL: MIC (Candida albicans [9])
>32: Ratio [3] | Ratio [7] | Ratio [10]
>64: Ratio [2]
16 µg/mL: MIC (Pichia kudriavzevii [1])
>128 µg/mL: MFC99 (Cryptococcus neoformans [4]) | MFC99 (Candida tropicalis [11]) | MFC99 (Nakaseomyces glabratus [12]) | MFC99 (Candida albicans [14])
4: Ratio [15]

COC(=O)c1ccccc1/N=c1\ssnc1Cl
2: Ratio [10] | Ratio [15]
1: Ratio [2] | Ratio [3] | Ratio [7]
32 µg/mL: MFC99 (Cryptococcus neoformans [4]) | MFC99 (Pichia kudriavzevii [8]) | MFC99 (Nakaseomyces glabratus [12]) | MIC (Cryptococcus neoformans [13])
16 µg/mL: MIC (Pichia kudriavzevii [1]) | MIC (Nakaseomyces glabratus [5]) | MIC (Candida tropicalis [6]) | MIC (Candida albicans [9]) | MFC99 (Candida tropicalis [11]) | MFC99 (Candida albicans [14])

COc1ccc(/N=c2\ssnc2Cl)cc1OC
32 µg/mL: MFC99 (Cryptococcus neoformans [4]) | MFC99 (Pichia kudriavzevii [8]) | MFC99 (Candida tropicalis [11])
16 µg/mL: MIC (Pichia kudriavzevii [1]) | MIC (Nakaseomyces glabratus [5]) | MIC (Candida tropicalis [6]) | MIC (Candida albicans [9]) | MFC99 (Nakaseomyces glabratus [12]) | MIC (Cryptococcus neoformans [13]) | MFC99 (Candida albicans [14])
2: Ratio [3] | Ratio [7] | Ratio [15]
1: Ratio [2] | Ratio [10]

C[C@@H]1[C@H](O)[C@@H](C)/C=C/C=C/C=C/C=C/C=C/C=C/C=C/[C@H](O[C@@H]2O[C@H](C)[C@@H](O)[C@H](N)[C@@H]2O)C[C@@H]2O[C@](O)(C[C@@H](O)C[C@@H](O)[C@H](O)CC[C@@H](O)C[C@@H](O)CC(=O)O[C@H]1C)C[C@H](O)[C@H]2C(=O)O [AMPHOTERICIN B]
0.5 µg/mL: MIC (Pichia kudriavzevii [1]) | MFC99 (Cryptococcus neoformans [4]) | MFC99 (Candida albicans [14])
0.13 µg/mL: MIC (Cryptococcus neoformans [13])
0.25 µg/mL: MIC (Candida albicans [9])
2 µg/mL: MFC99 (Candida tropicalis [11]) | MFC99 (Nakaseomyces glabratus [12])
1 µg/mL: MIC (Nakaseomyces glabratus [5]) | MIC (Candida tropicalis [6]) | MFC99 (Pichia kudriavzevii [8])
2: Ratio [2] | Ratio [7] | Ratio [10] | Ratio [15]
3.8: Ratio [3]

COc1ccccc1/N=c1\ssnc1Cl
8 µg/mL: MIC (Cryptococcus neoformans [13])
2: Ratio [3]
16 µg/mL: MIC (Pichia kudriavzevii [1]) | MFC99 (Cryptococcus neoformans [4]) | MIC (Nakaseomyces glabratus [5]) | MIC (Candida tropicalis [6]) | MFC99 (Pichia kudriavzevii [8]) | MIC (Candida albicans [9]) | MFC99 (Candida tropicalis [11]) | MFC99 (Nakaseomyces glabratus [12]) | MFC99 (Candida albicans [14])
1: Ratio [2] | Ratio [7] | Ratio [10] | Ratio [15]

COc1ccc(/N=c2\ssnc2Cl)cc1
1: Ratio [2] | Ratio [3] | Ratio [7] | Ratio [10] | Ratio [15]
8 µg/mL: MFC99 (Cryptococcus neoformans [4]) | MIC (Cryptococcus neoformans [13])
16 µg/mL: MIC (Pichia kudriavzevii [1]) | MIC (Nakaseomyces glabratus [5]) | MIC (Candida tropicalis [6]) | MFC99 (Pichia kudriavzevii [8]) | MIC (Candida albicans [9]) | MFC99 (Candida tropicalis [11]) | MFC99 (Nakaseomyces glabratus [12]) | MFC99 (Candida albicans [14])
